{"source": "patent US20150265642A1", "about": "“NAD BIOSYNTHESIS AND PRECURSORS IN THE PREVENTION AND TREATMENT OF INFLAMMATION” (PRESIDENT AND FELLOWS OF HARVARD COLLEGE, priority 2013, published 2015)", "key": {"NAD+ levels": {"system": "NAD+ levels", "experiment": "NAD+ measurement in skeletal muscle of NMN-treated mice", "assay_type": "in vivo, C57BL/6J mice", "settings": "for levels of cellular NAD+: young and old", "protocol": "(§1) C57BL/6J mice of 3, 6, 22, 24, or 30 months of age were obtained from the National Institutes of Aging mouse aging colony. Mice were acclimated for at least one-week prior to sacrifice. 3, and 24-month-old mice were given interperitoneal (IP) injections of 500 mg NMN/kg body weight per day or the equivalent volume of PBS for 7 consecutive days at 5:00 pm and 7:00 am on day 8 and sacrificed 4 hr after last injection. All animal studies followed the guidelines of and were approved by the Harvard Institutional Animal Care and Use Committee\nNAD^+ from C2C12 cells and skeletal muscle was quantified with a commercially available kit (BioVision) according to the manufacturer's instructions and as described before (Gomes et al., Biochim. Biophys. Acta. 1822:185-195 (2012)).\n(§2) C57BL/6J mice of 6, 22, or 30 months of age were obtained from the National Institutes of Aging mouse aging colony. Additionally 22 months old caloric restricted mice were also obtained from the National Institutes of Aging mouse aging colony. EGLN1 KO, SIRT1 KO and SIRT1 OE mice were generated as previously described (Minamishima et al., 2008; Price et al., 2012). Mice were acclimated for at least one-week prior to sacrifice. 3, 6, 22 and 24-month-old mice were given interperitoneal (IP) injections of 500 mg NMN/kg body weight per day or the equivalent volume of PBS for 7 consecutive days at 5:00 pm and 7:00 am on day 8 and sacrificed 4 hr after last injection.\nNAD^+ from skeletal muscle was quantified with a commercially available kit (BioVision) according to the manufacturer's instructions and as described before (Gomes et al., 2012).\nC57BL/6J mice of 3, 6, 22, or 24 months of age were obtained from the National Institutes of Aging mouse aging colony. Mice were acclimated for at least one-week prior to sacrifice. […]\nNAD^+ from C2C12 cells and skeletal muscle was quantified with a commercially available kit (BioVision) according to the manufacturer's instructions and as described before (Gomes et al., 2012)."}, "HIF-1α": {"system": "HIF-1α", "experiment": "Immunoblot for HIF-1α in gastrocnemius of NMN-treated mice", "assay_type": "in vivo", "protocol": "as §1\nC57BL/6J mice of 6, 22, or 30 months of age were obtained from the National Institutes of Aging mouse aging colony. Additionally 22 months old caloric restricted mice were also obtained from the National Institutes of Aging mouse aging colony. […]\nProtein extracts from tissue or C2C12 cells were obtained by lysis in ice-cold lysis buffer (150 mM NaCl, 10 mM Tris HCl (pH 7.4), 1 mM EDTA, 1 mM EGTA, 1% Triton X-100, 0.5% NP-40) supplemented with a cocktail of protease and phosphatase inhibitors (Roche). Protein content was determined by the Bradford protein assay (Biorad), and 50 μg proteins were run on SDS-PAGE under reducing conditions. […] The immunostaining was detected using horseradish peroxidase-conjugated anti-rabbit or anti-mouse immunoglobulin for 1 h at room temperature. […]"}, "[1]": {"system": "HIF-1α target genes (PGK-1, Glut1, PKD1, VEGFa)", "experiment": "qPCR of HIF-1α target genes in gastrocnemius of NMN-treated mice", "assay_type": "in vivo", "settings": "24-month-old mice; NMN 500 mg/kg IP, one week", "protocol": "as §1\nRNA from skeletal muscle tissue and C2C12 cells were extracted with RNeasy mini kit (Qiagen) according to the instructions and quantified using the NanoDrop 1000 spectrophotometer (Thermo Scientific). cDNA was synthesized with the iSCRIP cDNA synthesis kit (BioRad) using 600 ng of RNA. Quantitative RT-PCR reactions were performed using 1 μM of primers and LightCycler® 480 SYBR Green Master (Roche) on an LightCycler® 480 detection system (Roche). Calculations were performed by a comparative method (2-ΔCT) using 18S as an internal control. For mtDNA analysis, total DNA was extracted with DNeasy blood and tissue kit (Qiagen). mtDNA was amplified using primers specific for the mitochondrial cytochrome c oxidase subunit 2 (COX2) gene and normalized to genomic DNA by amplification of the ribosomal protein s18 (rps18) nuclear gene. […]"}, "[2]": {"experiment": "Lactate levels in skeletal muscle of NMN-treated mice", "assay_type": "in vivo", "settings": "22-month-old mice; NMN one week", "source_text": "as §2"}, "Atrogin-1 and MuRF1": {"system": "Atrogin-1 and MuRF1", "experiment": "Immunoblot for muscle wasting markers in gastrocnemius", "assay_type": "in vivo", "settings": "skeletal muscle of old (22-month-old) mice; NMN", "source_text": "as §2\nProtein extracts from tissue or C2C12 cells were obtained by lysis in ice-cold lysis buffer (150 mM NaCl, 10 mM Tris HCl (pH 7.4), 1 mM EDTA, 1 mM EGTA, 1% Triton X-100, 0.5% NP-40) supplemented with a cocktail of protease and phosphatase inhibitors (Roche). Protein content was determined by the Bradford protein assay (Biorad), and 50 μg proteins were run on SDS-PAGE under reducing conditions. The separated proteins were then electrophoretically transferred to a polyvinylidene difluoride membrane (Perkin-Elmer). […] The immunostaining was detected using horseradish peroxidase-conjugated anti-rabbit or anti-mouse immunoglobulin for 1 h at room temperature."}, "[3]": {"system": "inflammation related markers (TNFa, IL-6, IL-18)", "experiment": "qPCR of inflammation related markers in gastrocnemius", "assay_type": "in vivo, C57BL/6J mice", "settings": "22-month-old mice, NMN IP 500 mg/kg/day, 7 days, 500 mg/kg/day", "protocol": "(§3) C57BL/6J mice of 3, 6, 22, or 24 months of age were obtained from the National Institutes of Aging mouse aging colony. Mice were acclimated for at least one-week prior to sacrifice. 3, 6, 22 and 24-month-old mice were given interperitoneal (IP) injections of 500 mg NMN/kg body weight per day or the equivalent volume of PBS for 7 consecutive days at 5:00 pm and 7:00 am on day 8 and sacrificed 4 hr after last injection. All animal studies followed the guidelines of and were approved by the Harvard Institutional Animal Care and Use Committee\nC57BL/6J mice of 6 months of age were given interperitoneal (IP) injections of 300 mg DMOG/kg body weight per day or the equivalent volume of PBS for 5 consecutive days. All animal studies followed the guidelines of and were approved by the Harvard Institutional Animal Care and Use Committee\nRNA from skeletal muscle and aorta were extracted with RNeasy mini kit (Qiagen) according to the instructions and quantified using the NanoDrop 1000 spectrophotometer (Thermo Scientific). cDNA was synthesized with the iSCRIP cDNA synthesis kit (BioRad) using 600 ng of RNA. Quantitative RT-PCR reactions were performed using 1 μM of primers and LightCycler® 480 SYBR Green Master (Roche) on an LightCycler® 480 detection system (Roche). Calculations were performed by a comparative method (2-ΔCT) using 18S as an internal control. […]"}, "[4]": {"system": "inflammation related markers in aortas", "experiment": "qPCR of inflammation related markers in aortas", "assay_type": "in vivo, C57BL/6J mice", "settings": "22-months-old mice, NMN IP 500 mg/kg/day, 7 days", "protocol": "as §3\nRNA from skeletal muscle and aorta were extracted with RNeasy mini kit (Qiagen) according to the instructions and quantified using the NanoDrop 1000 spectrophotometer (Thermo Scientific). cDNA was synthesized with the iSCRIP cDNA synthesis kit (BioRad) using 600 ng of RNA. Quantitative RT-PCR reactions were performed using 1 μM of primers and LightCycler® 480 SYBR Green Master (Roche) on an LightCycler® 480 detection system (Roche). Calculations were performed by a comparative method (2-ΔCT) using 18S as an internal control. Primers were designed using the IDT software (IDT)."}}, "note": "Entries after “also recorded” stand apart in the source; their conditions may differ.", "data": [{"compound": "NC(=O)c1ccc[n+]([C@@H]2O[C@H](COP(=O)([O-])O)[C@@H](O)[C@H]2O)c1", "note": "[NMN, nicotinamide mononucleotide]", "values": [{"measurement": "levels of cellular NAD+", "setting": "NAD+ levels; 3- and 24-month-old C57BL/6J mice, NMN 500 mg/kg IP, one week, treated vs untreated", "result": "approximately 2 fold"}, {"measurement": "levels of cellular NAD+", "setting": "NAD+ levels; 6- and 22-month-old C57BL/6J mice, NMN one week", "result": 2, "unit": "fold"}, {"measurement": "NAD+ levels in the skeletal muscle of old mice", "setting": "NAD+ levels; gastrocnemius, 3- and 24-month-old C57BL6J mice, NMN IP 500 mg/kg/day, 7 days, colorimetric NAD+ assay", "result": "increases NAD+ levels"}, {"measurement": "HIF-1α protein", "setting": "HIF-1α; 22-month-old mice, gastrocnemius, NMN IP 500 mg/kg/day, 7 days, 500 mg/kg/day", "result": "reversed the age-induced decline in VHL and consequent accumulation of HIF-1α; also recorded: destabilizes HIF-1alpha in the skeletal muscle of old animals"}, {"measurement": "HIF-1α in muscle", "setting": "HIF-1α; 24-month-old mice, NMN 500 mg/kg IP, one week", "result": "reversed the age-induced increase in HIF-1α in muscle"}, {"measurement": "expression of HIF-1α target genes", "setting": "[1]", "result": "suppressed the expression of HIF-1α target genes"}, {"measurement": "lactate levels in the skeletal muscle", "setting": "[2]", "result": "suppressed the increase in lactate levels"}, {"measurement": "muscle wasting markers Atrogin-1 and MuRF1", "setting": "Atrogin-1 and MuRF1", "result": "completely reversed"}, {"measurement": "expression of inflammation markers (TNFa, IL-6, IL-18) in the skeletal muscle", "setting": "[3]", "result": "completely reversed; also recorded: reverses age-related increase in inflammatory markers in the skeletal muscle"}, {"measurement": "inflammation related markers (IL-6, TNFa, Nlrp3, IL-1b, CD68 and IL-10) in aortas", "setting": "[4]; FIG. 26", "result": "reduces inflammation in aortas from old mice"}, {"measurement": "inflammatory markers (VEGF and IL-18) in aortas", "setting": "[4]; FIG. 27", "result": "reduces inflammation in aortas from old mice"}]}]}
